Data on eight compounds can be found in patent publication US7326703B2, “(1,10B-Dihydro-2-(aminocarbonyl-phenyl)-5H-pyrazolo[1,5-c][1,3]benzoxazin-5-yl)phenyl methanone derivatives as HIV viral replication inhibitors” (priority 2004, dated 2008).

One test concerns HIV-1 strain LAI. The experiment in a line: Cellular anti-viral assay in MT4-LTR-EGFP cells, wild type HIV-1 strain LAI. The class given is cell-based. Particulars: Human immunodeficiency virus 1, 72 h; MT4-LTR-EGFP cells, three days incubation, GFP signal; average EC50 used where more than one run; read-out: Activity class for HIV-1-LAI test. The protocol: (§1) The compounds were tested in a cellular assay using the MT4-LTR-EGFP cells for anti-viral activity. […] The cellular assay was performed according to the following procedure.
(§2) HIV- or mock-infected MT4-LTR-EGFP cells were incubated for three days in the presence of various concentrations of the inhibitor. Upon infection, the GFP reporter is activated by the viral tat protein. At the end of the incubation period, the GFP signal was measured. In the virus control samples (in the absence of any inhibitor) the maximal fluorescent signal was obtained. The inhibitory activity of the compound was monitored on the virus-infected cells and was expressed as EC50 and EC90. These values represent the amount of the compound required to protect 50% and 90%, respectively, of the cells from virus infection. The toxicity of the compound was measured on the mock-infected cells and was expressed as CC50, which represents the concentration of compound required to inhibit the growth of the cells by 50%. The selectivity index (SI) (ratio CC50/EC50) is an indication of the selectivity of the anti-HIV activity of the inhibitor.

A further test has as its system HIV-1-MDR. In words: Cellular anti-viral assay in MT4-LTR-EGFP cells, multi-drug resistant HIV-1 virus. The class given is cell-based. Particulars: Human immunodeficiency virus 1, 72 h, read-out: Activity class for HIV-1-MDR test. On the procedure: as §1, §2

Each structure is given as a SMILES string.

For the compound `COc1ccc(CNC(=O)c2ccc(C3=NN4C(C(=O)c5ccc(F)cc5)Oc5ccccc5C4C3)cc2)cc1` (stereo not shown) [Compound 21], the EC50 in the test on HIV-1 strain LAI and in the test with HIV-1-MDR was more than 10 µM throughout.
For `CN(C)CCCN(C)C(=O)c1ccc(C2=NN3C(C(=O)c4ccc(F)cc4)Oc4ccccc4C3C2)cc1` (stereo not shown) [Compound 20], the EC50 in the test on HIV-1 strain LAI and with HIV-1-MDR was 1 to 10 µM in each case.
In the case of `O=C(NC1CCC1)c1ccc(C2=NN3C(C(=O)c4ccc(F)cc4)Oc4ccccc4C3C2)cc1` (stereo not shown) [Compound 38], the values for the EC50 in the test on HIV-1 strain LAI and with HIV-1-MDR were less than 1 µM and 1 to 10 µM, respectively.
In the same order, the values of `O=C(Nc1cccnc1)c1ccc(C2=NN3C(C(=O)c4ccc(F)cc4)Oc4ccccc4C3C2)cc1` (stereo not shown) [Compound 29] are 1 to 10 µM and less than 1 µM.
`CN1CCC(NC(=O)c2ccc(C3=NN4C(C(=O)c5ccc(F)cc5)Oc5ccccc5C4C3)cc2)CC1` (stereo not shown) [Compound 34]: the EC50 was 1 to 10 µM with HIV-1 strain LAI and more than 10 µM with HIV-1-MDR.
In the same order, the values of `CSc1ccc(C(=O)C2Oc3ccccc3C3CC(c4ccc(C(=O)NC5CCCC5)cc4)=NN23)cc1` (stereo not shown) [Compound 46] are less than 1 µM and less than 1 µM.
The corresponding values for `O=C(NC1CCCC1)c1ccc(C2=NN3C(C(=O)c4ccc(C(F)(F)F)cc4)Oc4ccccc4C3C2)cc1` (stereo not shown) [Compound 55] are less than 1 µM and less than 1 µM.
In the same order, the values of `CN1CCN(C(=O)c2ccc(C3=NN4C(C(=O)c5ccc(F)cc5)Oc5ccccc5C4C3)cc2)CC1` (stereo not shown) [Compound 35] are less than 1 µM and more than 10 µM.
